How the values were obtained:
B-Raf kinase = biological target: T1, B-Raf kinase (Homo sapiens, UniProt P15056); assay: Biochemical assay for B-Raf (coupled pyruvate kinase/lactate dehydrogenase); details: Table 1, inhibition of biochemical activity; read-out: BRAF
T1 construct: purchased Sigma

C-Raf kinase = biological target: T2, C-Raf kinase (Homo sapiens, UniProt P04049, Y340D/Y341D); assay: Biochemical assay for C-Raf (coupled pyruvate kinase/lactate dehydrogenase); details: Table 1, inhibition of biochemical activity; read-out: CRAF
T2 construct: C-Raf residues 306-end; Y340D, Y341D with N-; purchased Sigma

Pa16c cells = assay: Pa16c cell proliferation assay (resazurin); assay type: cell-based; details: Table 2, inhibition of cell proliferation
Experimental: Pa16c cells are obtained from Dr. Channing Der, University of North Carolina at Chapel Hill. Briefly, cells are grown in Dulbecco's Modified Eagle Medium supplemented with 10% characterized fetal bovine serum (Invitrogen, Carlsbad, CA) and 1% Penicillin/Streptomycin/L-Glutamine at 37° C., 5% CO2, and 95% humidity. Cells are expanded until reaching 70-95% confluency at which point they are sub-cultured or harvested for assay use. A serial dilution of test compound is dispensed into a 384-well black clear bottom plate in triplicate. 750 cells are added per well in 50 μL complete growth medium in the 384-well plate. Plates are incubated for 67 to 72 h at 37° C., 5% CO2, and 95% humidity. At the end of the incubation, 40 μL of a […] solution of resazurin (Sigma, St. Louis, MO) in PBS is added to each well of the plate and plates are incubated for an additional 18 to 24 h at 37° C., 5% CO2, and 95% humidity. Plates are read on a Synergy2 or equivalent reader (Biotek, Winooski, VT) using an excitation of 540 nm and an emission of 600 nm. Data is analyzed using Prism software (Graphpad, San Diego, CA) to calculate IC50 values.

HPAF-II cells = assay: HPAF-II cell proliferation assay (resazurin); assay type: cell-based; details: Homo sapiens; Table 2, inhibition of cell proliferation; read-out: HPAF-II
Experimental: HPAF-II cells (catalog #CRL-1997) are obtained from the American Type Culture Collect (ATCC, Manassas, VA). Briefly, cells are grown in Minimum Essential Media supplemented with 10% characterized fetal bovine serum (Invitrogen, Carlsbad, CA) and 1% Penicillin/Streptomycin/L-Glutamine at 37° C., 5% CO2, and 95% humidity. Cells are expanded until reaching 70-95% confluency at which point they are sub-cultured or harvested for assay use. A serial dilution of test compound is dispensed into a 384-well black clear bottom plate in triplicate. 750 cells are added per well in 50 μL complete growth medium in the 384-well plate. Plates are incubated for 115 to 120 h at 37° C., 5% CO2, and 95% humidity. At the end of the incubation, 40 μL of a […] solution of resazurin (Sigma, St. Louis, MO) in PBS is added to each well of the plate and plates are incubated for an additional 18 to 24 h at 37° C., 5% CO2, and 95% humidity. Plates are read on a Synergy2 or equivalent reader (Biotek, Winooski, VT) using an excitation of 540 nm and an emission of 600 nm. Data is analyzed using Prism software (Graphpad, San Diego, CA) to calculate IC50 values.

HCT-116 cells = assay: HCT-116 cell proliferation assay (resazurin); assay type: cell-based; details: Homo sapiens; Table 2, inhibition of cell proliferation; read-out: HCT-116
Experimental: HCT-116 cells (catalog #CCL-247) are obtained from the American Type Culture Collect (ATCC, Manassas, VA). Briefly, cells are grown in McCoy's 5A supplemented with 10% characterized fetal bovine serum (Invitrogen, Carlsbad, CA) and 1% Penicillin/Streptomycin/L-Glutamine at 37° C., 5% CO2, and 95% humidity. Cells are expanded until reaching 70-95% confluency at which point they are sub-cultured or harvested for assay use. A serial dilution of test compound is dispensed into a 384-well black clear bottom plate in triplicate. 375 cells are added per well in 50 μL complete growth medium in the 384-well plate. Plates are incubated for 67 to 72 h at 37° C., 5% CO2, and 95% humidity. At the end of the incubation, 40 μL of a […] solution of resazurin (Sigma, St. Louis, MO) in PBS is added to each well of the plate and plates are incubated for an additional 4 to 5 h at 37° C., 5% CO2, and 95% humidity. Plates are read on a Synergy2 or equivalent reader (Biotek, Winooski, VT) using an excitation of 540 nm and an emission of 600 nm. Data is analyzed using Prism software (Graphpad, San Diego, CA) to calculate IC50 values.

MiaPaca-2 cells = assay: MiaPaca-2 cell proliferation assay (resazurin); assay type: cell-based; details: Homo sapiens, MIA PaCa-2; Table 2, inhibition of cell proliferation; read-out: MiaPaca-2
Experimental: MiaPaca-2 cells (catalog #CRL-1420) are obtained from the American Type Culture Collect (ATTC, Manassas, VA). Briefly, cells were grown in DMVEM supplemented with […] fetal bovine serum (Invitrogen, Carlsbad, CA), 2.5% New Zealand sourced horse serum and 1% Penicillin/Streptomycin/L-Glutamine at 37° C., […], and […]. Cells are expanded until reaching […] at which point they are sub-cultured or harvested for assay use. For assays completed in 96-well plates, a serial dilution of test compound is dispensed into a 96-well black clear bottom plate in triplicate. Three thousand cells are added per well in 200 μL complete growth medium in the 96-well plate. Plates are incubated for 67 to 72 h at 37° C., 5% CO2, and 95% humidity. At the end of the incubation, 40 μL of a […] solution of resazurin (Sigma, St. Louis, MO) in PBS is added to each well of the plate and plates are incubated for an additional 5 to 6 h at 37° C., 5% CO2, and 95% humidity. For 384-well assays, a threefold, 8-point serial dilution of compound was spotted column wise into a 384 well black, clear bottom, tissue culture treated plate using the Beckman Coulter Echo 650. Likewise, a threefold, 8-point serial dilution of cobimetinib was spotted row wise into the 384 well black, clear bottom plate containing compound. DMSO concentration was constant across all wells at 0.4%. Seven hundred fifty cells are added per well in 50 μL complete growth medium in each 384-well plate. Plates are incubated for 67 to 72 h at 37° C., 5% CO2, and 95% humidity. At the end of the incubation, 10 μL of a 440 μM solution of resazurin (Sigma, St. Louis, MO) in PBS is added to each well of the plate and plates are incubated for an additional 4 to 6 h at 37° C., 5% CO2, and 95% humidity. Plates are read on a Synergy2 or equivalent reader (Biotek, Winooski VT) using an excitation of 540 nm and an emission of 600 nm. Data is analyzed using Prism software (Graphpad, San Diego, CA) to calculate IC50 values.

T1 sequence (P15056 416-766): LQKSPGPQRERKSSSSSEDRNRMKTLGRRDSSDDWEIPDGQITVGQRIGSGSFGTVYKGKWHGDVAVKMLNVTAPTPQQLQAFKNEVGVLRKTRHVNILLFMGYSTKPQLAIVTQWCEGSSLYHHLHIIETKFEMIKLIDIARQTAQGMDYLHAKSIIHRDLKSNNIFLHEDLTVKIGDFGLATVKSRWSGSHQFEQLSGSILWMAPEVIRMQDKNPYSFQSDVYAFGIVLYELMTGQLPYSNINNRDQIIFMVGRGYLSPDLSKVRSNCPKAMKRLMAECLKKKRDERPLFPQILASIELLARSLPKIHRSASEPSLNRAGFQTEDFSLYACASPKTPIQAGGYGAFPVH
T2 sequence (P04049 307-648 Y340D/Y341D): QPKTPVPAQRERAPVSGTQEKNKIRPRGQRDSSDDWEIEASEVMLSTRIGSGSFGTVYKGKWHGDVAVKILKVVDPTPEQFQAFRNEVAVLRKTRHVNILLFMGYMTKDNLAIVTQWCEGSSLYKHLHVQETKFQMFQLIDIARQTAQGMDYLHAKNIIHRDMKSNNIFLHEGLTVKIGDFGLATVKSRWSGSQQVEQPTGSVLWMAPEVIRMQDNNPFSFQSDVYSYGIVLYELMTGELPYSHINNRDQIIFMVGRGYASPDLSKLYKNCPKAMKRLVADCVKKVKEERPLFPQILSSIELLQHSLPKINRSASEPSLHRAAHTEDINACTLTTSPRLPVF

IC50 (B-Raf kinase) [nM] | IC50 (C-Raf kinase) [nM] | IC50 (HCT-116 cells) [nM] | IC50 (MiaPaca-2 cells) [nM] | Structure (SMILES) | IC50 (Pa16c cells) [nM] | IC50 (HPAF-II cells) [nM]
< 100 | < 100 | < 100 | < 100 | Cc1ccc(NC(=O)c2cc(C(F)(F)F)cnn2)cc1-c1ccnc(-c2ccnc(C(N)=O)c2)c1 [Example 3, 4-(2-methyl-5-(5-(trifluoromethyl)pyridazine-3-carboxamido)phenyl)-[2,4′-bipyridine]-2′-carboxamide] | < 100 | 100 to 500
100 to 500 | < 100 | 100 to 500 | 100 to 500 | Cc1cc(-c2cc(NC(=O)c3cc(C(F)(F)F)cnn3)ccc2C)cc(-c2ccnc(C(N)=O)c2)n1 [Example 7] | 100 to 500 | 100 to 500
< 100 | < 100 | 1000 to 10000 | 1000 to 10000 | CNC(=O)c1cc(-c2cc(-c3cc(NC(=O)c4cncc(C(F)(F)F)c4)ccc3C)ccn2)ccn1 [Example 12] | 1000 to 10000 | 1000 to 10000
100 to 500 | < 100 | 1000 to 10000 | 1000 to 10000 | CNC(=O)c1cc(-c2cc(-c3cc(NC(=O)c4cncc(C(F)(F)F)c4)ccc3C)cc(C)n2)ccn1 [Example 13] | 1000 to 10000 | 1000 to 10000
100 to 500 | < 100 |  | 1000 to 10000 | CNC(=O)c1cc(-c2cc(-c3cc(NC(=O)c4cncc(C(C)(F)F)c4)ccc3C)cc(C)n2)ccn1 [Example 15] |  | 

Second part, the compound before the results:

Structure (SMILES) | IC50 (B-Raf kinase) [nM] | IC50 (C-Raf kinase) [nM] | IC50 (HCT-116 cells) [nM] | IC50 (MiaPaca-2 cells) [nM] | IC50 (Pa16c cells) [nM] | IC50 (HPAF-II cells) [nM]
Cc1ccc(NC(=O)c2ccc(C(F)(F)F)nc2)cc1-c1ccnc(-c2ccnc(C(=O)NC3CC3)c2)c1 [Example 5] | 1000 to 10000 | 100 to 500 | 100 to 500 | 500 to 1000 |  | 
CNC(=O)c1cc(-c2cc(-c3cc(NC(=O)c4cc(C5CC5)cnn4)ccc3C)nc(NCCO)n2)ccn1 [Example 8] | < 100 | < 100 | 100 to 500 | 500 to 1000 | 1000 to 10000 | 1000 to 10000
CNC(=O)c1cc(-c2cncc(-c3cc(NC(=O)c4ccc(C(F)(F)F)nc4)ccc3C)c2)ncn1 [Example 10] | 100 to 500 | 100 to 500 |  | 1000 to 10000 |  | 
Cc1ccc(NC(=O)c2ccc(C(F)(F)F)nc2)cc1-c1cncc(-c2ccnc(C(N)=O)c2)c1 [Example 11] | 500 to 1000 | 100 to 500 |  | 1000 to 10000 |  | 
CNC(=O)c1cc(-c2cc(-c3cc(NC(=O)c4cncc(C(C)(F)F)c4)ccc3C)ccn2)ccn1 [Example 14] | < 100 | < 100 | 500 to 1000 | 1000 to 10000 |  | 1000 to 10000
